Results published in patent US20150218516A1, “COMPOSITIONS AND METHODS FOR ENHANCING IMMUNE RESPONSES MEDIATED BY ANTIGEN-PRESENTING CELLS” (The Board of Regents of the University of Nebraska, priority 2007, published 2015).
Non-standard residues stand in square brackets, D forms with d. Residues, ends and D or L forms follow the SMILES beside them.

How the values were obtained:
human umbilical artery = experiment: Smooth muscle contraction of human umbilical artery; type: cell-based; settings: for EC50: concentration resulting in 50% maximum contraction; for pD2 ± SE: −log EC50 (M), mean ± SE, n=3
Description: (§1) Statistical analysis of the values obtained from pharmacologic assays was performed using one-way analysis of variance (ANOVA).

human PMNs = experiment: MPO release from human PMNs; type: cell-based; settings: for pD2 ± SE: −log EC50 (M), mean ± SE, n=3
Description: as §1

C5aRs on Human PMNs = biological target: T1, C5aRs on Human PMNs (Homo sapiens, UniProt P21730); experiment: Competition assay with 125I-C5a for C5aR binding on intact human PMNs
T1 construct: endogenous in cells; host or cells: intact human PMNs (polymorphonuclear leukocytes)
T1 sequence (P21730 1-350): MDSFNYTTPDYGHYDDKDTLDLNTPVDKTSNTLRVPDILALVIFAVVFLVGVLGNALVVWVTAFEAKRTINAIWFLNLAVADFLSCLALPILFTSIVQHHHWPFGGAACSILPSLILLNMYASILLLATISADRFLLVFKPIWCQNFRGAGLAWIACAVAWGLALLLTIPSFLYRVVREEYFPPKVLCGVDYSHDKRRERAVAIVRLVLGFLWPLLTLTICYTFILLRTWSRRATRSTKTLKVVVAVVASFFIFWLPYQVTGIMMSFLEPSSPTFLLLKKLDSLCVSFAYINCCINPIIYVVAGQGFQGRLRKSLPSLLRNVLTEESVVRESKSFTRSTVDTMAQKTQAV
Description: C5a-like agonistic activity was assessed by the ability of the peptides to induce smooth muscle contraction of human umbilical artery and MPO release from human PMNs according to previously published methods (Sanderson et al., 1994, supra; Sanderson et al., J. Med. Chem. 38, 3669, 1995; Finch et al., J. Med. Chem. 40, 877, 1997). Full concentration-response curves were generated for individual peptides and natural C5a in each assay and the EC50 values (the concentration of peptide producing 50% of the maximal response to each peptide) were calculated. pD2 transforms [−log EC50 (M)] were calculated for each concentration-response curve and reported as the mean±SE. Peptide binding affinity to the C5aR was evaluated on intact human PMNs by a competition assay using ^125I-C5a according to previously described methods (Sanderson et al., 1995, supra; Finch et al., 1997, supra). Statistical analysis of the values obtained from pharmacologic assays was performed using one-way analysis of variance (ANOVA).

SKRC-1 = settings: low G250 expression; cord blood T lymphocytes
Description: (§2) An exemplary in vitro cytotoxicity assay comprises the following steps. Antigen presenting cells, such as dendritic cells, were obtained from bone marrow or blood. Dendritic cells were preferentially differentiated in culture through the addition of IL-4, GM-CSF, and TNFα for 7-10 days. Dendritic cells were then pulsed with peptides for 18 hours. MNCs were also isolated from spleens or blood (e.g., cord or peripheral) and cultured in IL-2 and GM-CSF for 7-10 days for enhanced lymphocyte proliferation. The pulsed dendritic cells were then co-cultured with the lymphocyte-enriched MNCs at a 1:10 ratio for 4 days. Lymphocyte-enriched MNC effector cells were then co-cultured with tumor target cells labeled with the bioactive fluorescent dye Calcein AM for 4 hours. Lysed cells were detected by photometrically measuring the released fluorescent dye.
(§3) Certain renal cell carcinomas express the tumor antigen G250. […] The fusion peptide was administered to APCs which were subsequently presented for 4 days to a lymphocyte-enriched population from cord blood as described hereinabove in Example 6.

SKRC-52 = settings: cord blood T lymphocytes, dendritic cells exposed to the peptide
Description: as §2, §3

[1] = test system: A-375 cell line (melanoma); type: cell-based, human
Description: The tumor peptide antigen tyrosinase is expressed on more than 70% of human melanoma cells that are human leukocyte antigen (HLA) A2 positive. […] The dendritic cells, presumably expressing the tyrosinase epitope, were then cultured with a lymphocyte-enriched cell population which was then cultured with melanoma cells to determine melanoma cell killing using a cytotoxic T lymphocyte assay.

BEAS-2B epithelial cells = test system: BEAS-2B epithelial cells
Description: as §2
(§4) Certain prostate carcinomas express prostate-specific membrane antigen (PSMA). […] The fusion peptides were administered to APCs which were subsequently presented to a lymphocyte-enriched population from cord blood as described hereinabove in Example 6. After antigen presentation by pulsed DC in co-culture, CTLs were tested for their ability to lyse three different target cell monolayers in an in vitro cytotoxicity assay. […] The fusion peptides were also administered to APCs which were subsequently presented to a adult peripheral blood-derived CTLs. In vitro cytotoxicity against the human prostate cancer cell line LNCaP was then assessed using the bioactive fluorescent dye calcein AM (FIG. 11D).

LNCaP cells = test system: LNCaP cells
Description: as §2, §4

κR(33-52) peptide = experiment: Peptide-specific ELISA of serum and protein A-purified antibody from immunized rabbits; type: in vivo
Description: Rabbits were immunized s.c. with 500 μg of […]aR (SEQ ID NO: 10) construct in complete Freund's adjuvant (GIBCO, Grand Island, N.Y.) on day 0 followed by booster injections on days 30 and 60 in incomplete Freund's adjuvant. Serum was collected starting 75 days after the initial immunization.
The presence of anti-peptide antibody was determined by using a peptide specific ELISA utilizing the free κR(33-52) peptide as previously described (Morgan et al. (1993) J. Immunol., 151: 377). Anti-κR(33-52) and normal rabbit γ-globulin (RGG) were purified by protein A Sepharose chromatography (Sigma) (Morgan et al. (1993) J. Immunol., 151: 377) prior to use.

CC[C@H](C)[C@H](NC(=O)[C@H](CCCNC(=N)N)NC(=O)[C@H](CCCNC(=N)N)NC(=O)[C@H](CCCNC(=N)N)NC(=O)[C@@H](C)NC(=O)[C@H](CC(C)C)NC(=O)[C@@H]1CCCN1C(=O)[C@H](CCSC)NC(=O)[C@@H]1CCCN1C(=O)[C@H](CCCCN)NC(=O)[C@H](Cc1ccccc1)NC(=O)[C@H](CO)NC(=O)[C@@H](N)Cc1ccc(O)cc1)C(=O)N1CCC[C@H]1C(=O)N[C@@H](CCC(N)=O)C(=O)N[C@@H](CO)C(=O)N[C@@H](CC(C)C)C(=O)N[C@@H](CC(=O)O)C(=O)N[C@@H](CO)C(=O)N[C@@H](Cc1c[nH]c2ccccc12)C(=O)N[C@@H](Cc1c[nH]c2ccccc12)C(=O)N[C@H](C(=O)N[C@@H](CO)C(=O)N[C@@H](CC(C)C)C(=O)O)[C@@H](C)O
potency in umbilical artery contraction (in words) (human umbilical artery): significantly less potent
EC50 (human umbilical artery): 39.4 µM
pD2 ± SE (human umbilical artery): 4.41 ± 0.06
MPO release from PMNs (in words) (human PMNs): inactive
pD2 ± SE (human PMNs): >3
binding to the C5aR (in words) (C5aRs on Human PMNs): bound poorly

CSCC[C@H](NC(=O)[C@@H]1CCCN1C(=O)[C@H](CCCCN)NC(=O)[C@H](Cc1ccccc1)NC(=O)[C@H](CO)NC(=O)[C@H](Cc1ccc(O)cc1)NC(=O)[C@H](CCCNC(=N)N)NC(=O)[C@H](CCCNC(=N)N)NC(=O)[C@@H](NC(=O)[C@H](CCCNC(=N)N)NC(=O)[C@H](C)NC(=O)[C@H](Cc1ccccc1)NC(=O)[C@H](C)NC(=O)[C@@H](NC(=O)[C@H](CO)NC(=O)[C@H](CC(C)C)NC(=O)[C@@H](N)Cc1c[nH]cn1)[C@@H](C)O)C(C)C)C(=O)N1CCC[C@H]1C(=O)N[C@@H](CC(C)C)C(=O)N[C@H](C)C(=O)N[C@@H](CCCNC(=N)N)C(=O)O (H-HLSTAFARVRRYSFKPMPL[dA]R-OH)
cytotoxicity against SKRC-1 (in words) (SKRC-1): exhibited cytotoxicity
cytotoxicity against SKRC-52 (in words) (SKRC-52): significant cytotoxicity

CSCC[C@H](NC(=O)[C@@H]1CCCN1C(=O)[C@H](CCCCN)NC(=O)[C@H](Cc1ccccc1)NC(=O)[C@H](CO)NC(=O)[C@H](Cc1ccc(O)cc1)NC(=O)[C@@H](NC(=O)[C@H](CCCNC(=N)N)NC(=O)[C@H](C)NC(=O)[C@H](Cc1ccccc1)NC(=O)[C@H](C)NC(=O)[C@@H](NC(=O)[C@H](CO)NC(=O)[C@H](CC(C)C)NC(=O)[C@@H](N)Cc1c[nH]cn1)[C@@H](C)O)C(C)C)C(=O)N1CCC[C@H]1C(=O)N[C@@H](CC(C)C)C(=O)N[C@H](C)C(=O)N[C@@H](CCCNC(=N)N)C(=O)O (H-HLSTAFARVYSFKPMPL[dA]R-OH)
cytotoxicity against SKRC-1 (in words) (SKRC-1): exhibited cytotoxicity
cytotoxicity against SKRC-52 (in words) (SKRC-52): significant cytotoxicity

CC[C@H](C)[C@H](N)C(=O)N1CCC[C@H]1C(=O)N[C@@H](CCC(N)=O)C(=O)N[C@@H](CO)C(=O)N[C@@H](CC(C)C)C(=O)N[C@@H](CC(=O)O)C(=O)N[C@@H](CO)C(=O)N[C@@H](Cc1c[nH]c2ccccc12)C(=O)N[C@@H](Cc1c[nH]c2ccccc12)C(=O)N[C@H](C(=O)N[C@@H](CO)C(=O)N[C@@H](CC(C)C)C(=O)N[C@@H](CCCNC(=N)N)C(=O)N[C@@H](CCCNC(=N)N)C(=O)N[C@@H](Cc1ccc(O)cc1)C(=O)N[C@@H](CO)C(=O)N[C@@H](Cc1ccccc1)C(=O)N[C@@H](CCCCN)C(=O)N1CCC[C@H]1C(=O)N[C@@H](CCSC)C(=O)N1CCC[C@H]1C(=O)N[C@@H](CC(C)C)C(=O)N[C@H](C)C(=O)N[C@@H](CCCNC(=N)N)C(=O)NCC(=O)O)[C@@H](C)O (H-IPQSLDSWWTSLRRYSFKPMPL[dA]RG-OH)
potency in umbilical artery contraction (in words) (human umbilical artery): significantly less potent
EC50 (human umbilical artery): 6.78 µM
pD2 ± SE (human umbilical artery): 5.17 ± 0.13
MPO release from PMNs (in words) (human PMNs): unable to induce a full response
EC50 (human PMNs; 50% maximum release of myeloperoxidase): 2.56 µM
pD2 ± SE (human PMNs): 5.59 ± 0.28
binding to the C5aR (in words) (C5aRs on Human PMNs): significantly less affinity

CC(C)C[C@H](NC(=O)[C@@H](N)CC(C)C)C(=O)N[C@@H](Cc1c[nH]cn1)C(=O)N[C@@H](CCC(=O)O)C(=O)N[C@H](C(=O)N[C@@H](CC(=O)O)C(=O)N[C@@H](CO)C(=O)N[C@@H](C)C(=O)N[C@H](C(=O)O)C(C)C)[C@@H](C)O [PSMA p1]
cytotoxicity against A-375 (in words) [1]: not cytotoxic
cytotoxicity against BEAS-2B (in words) (BEAS-2B epithelial cells): not cytotoxic
cytotoxicity against LNCaP (in words) (LNCaP cells): did not exhibit significant cytotoxicity

CC[C@H](C)[C@H](NC(=O)[C@H](CC(=O)O)NC(=O)[C@H](Cc1ccccc1)NC(=O)[C@H](CC(C)C)NC(=O)[C@H](C)N)C(=O)N[C@@H](CCC(=O)O)C(=O)N[C@@H](CO)C(=O)N[C@@H](CCCCN)C(=O)N[C@H](C(=O)O)C(C)C [PSMA p2]
cytotoxicity against A-375 (in words) [1]: not cytotoxic
cytotoxicity against BEAS-2B (in words) (BEAS-2B epithelial cells): not cytotoxic
cytotoxicity against LNCaP (in words) (LNCaP cells): did not exhibit significant cytotoxicity

FPGWAEPDSNGSAGSEDAQLYSFKPMPLaR
antibody concentration at which binding to free κR(33-52) was detectable (κR(33-52) peptide; protein A-purified antibody from immunized rabbits): less than 0.1 ng/ml
ED50 titer (κR(33-52) peptide; protein A-purified antibody, multiple bleedings): 1 to 10 ng/mL
serum titer against free κR(33-52) peptide (κR(33-52) peptide; rabbits, 500 μg s.c. in Freund's adjuvant): approximately 10^5
